According to ChEMBL document CHEMBL3734669, “Δ(5)-Cholenoyl-amino acids as selective and orally available antagonists of the Eph-ephrin system” (Eur J Med Chem, 2015):

Assays:
Ephrin type-B receptor 6 = biological target: T1, Ephrin type-B receptor 6 (Homo sapiens, UniProt O15197); test: (§1) Displacement of biotinylated ephrin-B1-Fc from EphB6 (unknown origin) preincubated for 1 hr followed by biotinylated-ephrin-B1-Fc addition measured after 4 hrs by ELISA
T1 sequence (O15197 whole entry): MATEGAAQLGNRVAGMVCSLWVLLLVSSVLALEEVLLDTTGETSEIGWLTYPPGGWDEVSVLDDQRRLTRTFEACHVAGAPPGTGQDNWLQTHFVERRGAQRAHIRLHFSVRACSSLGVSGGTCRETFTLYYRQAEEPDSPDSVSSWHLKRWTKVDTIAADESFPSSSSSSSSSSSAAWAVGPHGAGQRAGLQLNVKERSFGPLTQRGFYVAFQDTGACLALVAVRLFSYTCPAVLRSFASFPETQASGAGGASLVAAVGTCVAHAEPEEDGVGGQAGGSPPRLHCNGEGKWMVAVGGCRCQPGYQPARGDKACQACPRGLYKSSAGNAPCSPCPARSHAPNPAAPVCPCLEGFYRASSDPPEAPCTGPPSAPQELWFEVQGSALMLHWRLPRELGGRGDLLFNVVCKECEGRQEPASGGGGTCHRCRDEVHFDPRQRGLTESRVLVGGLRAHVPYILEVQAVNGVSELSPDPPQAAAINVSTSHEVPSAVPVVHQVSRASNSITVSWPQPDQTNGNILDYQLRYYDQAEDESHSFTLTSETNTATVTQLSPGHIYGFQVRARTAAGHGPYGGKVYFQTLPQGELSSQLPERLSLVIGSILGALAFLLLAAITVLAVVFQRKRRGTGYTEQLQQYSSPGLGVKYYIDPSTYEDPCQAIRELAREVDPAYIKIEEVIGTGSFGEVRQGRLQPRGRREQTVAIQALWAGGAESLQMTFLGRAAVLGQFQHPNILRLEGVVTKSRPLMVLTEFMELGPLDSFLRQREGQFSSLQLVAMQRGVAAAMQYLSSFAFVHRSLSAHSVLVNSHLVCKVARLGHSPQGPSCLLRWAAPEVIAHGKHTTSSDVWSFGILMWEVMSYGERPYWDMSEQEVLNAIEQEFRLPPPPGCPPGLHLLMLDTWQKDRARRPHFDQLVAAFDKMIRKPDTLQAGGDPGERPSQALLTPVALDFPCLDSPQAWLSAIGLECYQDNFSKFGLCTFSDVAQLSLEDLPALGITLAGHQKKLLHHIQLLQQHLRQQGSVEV

[1] = biological target: T2, Ephrin type-B receptor 6 (Homo sapiens) (UniProt O15197); test: as §1
T2 sequence (whole entry): T1 sequence (O15197 whole entry)

[2] = biological target: T3, Ephrin type-A receptor 8 (Homo sapiens) (UniProt P29322); test: (§2) Displacement of biotinylated ephrin-A1-Fc from EphA8 (unknown origin) preincubated for 1 hr followed by biotinylated-ephrin-A1-Fc addition measured after 4 hrs by ELISA
T3 sequence (whole entry): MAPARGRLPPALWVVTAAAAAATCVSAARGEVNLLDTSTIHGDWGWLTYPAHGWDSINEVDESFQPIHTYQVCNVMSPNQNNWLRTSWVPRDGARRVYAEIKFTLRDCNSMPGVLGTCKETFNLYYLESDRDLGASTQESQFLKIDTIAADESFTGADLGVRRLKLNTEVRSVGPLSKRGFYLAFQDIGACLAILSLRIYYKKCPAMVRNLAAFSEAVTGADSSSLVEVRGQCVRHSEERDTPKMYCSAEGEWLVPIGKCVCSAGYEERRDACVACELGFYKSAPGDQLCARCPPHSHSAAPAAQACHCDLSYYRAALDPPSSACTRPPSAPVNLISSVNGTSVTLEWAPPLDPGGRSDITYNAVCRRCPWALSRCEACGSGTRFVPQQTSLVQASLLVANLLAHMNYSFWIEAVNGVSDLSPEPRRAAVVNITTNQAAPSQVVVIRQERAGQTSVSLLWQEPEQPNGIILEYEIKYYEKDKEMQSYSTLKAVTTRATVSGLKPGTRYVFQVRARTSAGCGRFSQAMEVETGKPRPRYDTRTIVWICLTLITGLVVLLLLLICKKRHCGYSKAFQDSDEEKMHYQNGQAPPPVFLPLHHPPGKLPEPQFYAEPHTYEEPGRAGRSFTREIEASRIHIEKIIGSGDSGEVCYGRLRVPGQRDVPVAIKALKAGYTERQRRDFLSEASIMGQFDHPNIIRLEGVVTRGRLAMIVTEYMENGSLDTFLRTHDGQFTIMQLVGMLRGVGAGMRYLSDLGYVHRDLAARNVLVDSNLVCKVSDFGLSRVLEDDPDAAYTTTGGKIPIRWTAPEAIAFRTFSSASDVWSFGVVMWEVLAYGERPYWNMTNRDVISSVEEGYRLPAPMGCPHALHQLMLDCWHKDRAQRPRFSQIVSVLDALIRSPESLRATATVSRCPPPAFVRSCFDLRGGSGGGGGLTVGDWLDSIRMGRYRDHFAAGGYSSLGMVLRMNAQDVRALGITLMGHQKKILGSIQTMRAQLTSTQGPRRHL

Ephrin type-A receptor 8 = biological target: T4, Ephrin type-A receptor 8 (Homo sapiens, UniProt P29322); test: as §2
T4 sequence (P29322 whole entry): T3 sequence (whole entry)

[3] = n-octanol-water distribution coefficient, log D of the compound at pH 7.4 after 4 hrs by shake-flask method; format: physicochemical

Which results are given for `C[C@H](CCC(=O)N[C@@H](Cc1c[nH]c2ccccc12)C(=O)O)[C@H]1CC[C@H]2[C@@H]3CC=C4C[C@@H](O)CC[C@]4(C)[C@H]3CC[C@]12C`?
IC50 (Ephrin type-B receptor 6): 3.3 µM; inhibition [1]: Dose-dependent effect; inhibition [2]: Dose-dependent effect; IC50 (Ephrin type-A receptor 8): 3.1 µM; logD at 4 h [3]: 4.01
